pIC50: −log10 of the molar value. The source made the active and inactive calls. No cut-off for these calls is given here.
How the values were obtained:
Liver [1] = test: Antioxidant activity against tert-butyl hydroperoxide-induced lipoperoxidation in rat liver microsomal membranes at 50 uM preincubated for 10 mins followed by tert-butyl hydroperoxide addition measured after 60 mins by TBARS assay relative to control; type: functional, cell membranes; conditions: Microsomal Membrane
[2] = Antioxidant activity assessed as DPPH radical scavenging activity after 30 mins by spectrophotometric method; type: functional
HepG2 [3] = test: Cytotoxicity against human HepG2 cells assessed as reduction in cell viability up to 10 uM after 4 hrs by MTT assay; type: cell-based; conditions: hepg2, 4 h
HepG2 [4] = test: Cytoprotective activity against tert-butyl hydroperoxide-induced toxicity in human HepG2 cells assessed as cell viability at 5 uM pretreated for 1 hr followed by tert-butyl hydroperoxide addition for 3 hrs by MTT assay (reference value: 16%); type: functional
[5] = Antiradical activity assessed as gallic acid equivalents of Foline-Ciocalteu reagent reducing capacity at 1 mM preincubated for 5 mins followed by Na2CO3 addition measured after 90 mins
[6] = Antioxidant activity assessed as DPPH radical scavenging activity after 30 mins in presence of silybin by spectrophotometric method; type: functional
[7] = Antiradical activity assessed as gallic acid equivalents of Foline-Ciocalteu reagent reducing capacity at 1 mM preincubated for 5 mins followed by Na2CO3 addition measured after 90 mins in presence of silybin
Liver [8] = test: Antioxidant activity against tert-butyl hydroperoxide-induced lipoperoxidation in rat liver microsomal membranes at 1 mM preincubated for 10 mins followed by tert-butyl hydroperoxide addition measured after 60 mins by TBARS assay relative to control; type: functional, cell membranes; conditions: Microsomal Membrane
Liver [9] = test: Antioxidant activity against tert-butyl hydroperoxide-induced lipoperoxidation in rat liver microsomal membranes preincubated for 10 mins followed by tert-butyl hydroperoxide addition measured after 60 mins by TBARS assay; type: functional, cell membranes, Microsomal Membrane
HepG2 [10] = test: Cytoprotective activity against tert-butyl hydroperoxide-induced toxicity in human HepG2 cells assessed as cell viability at 5 uM pretreated for 1 hr followed by co-treatment with tert-butyl hydroperoxide for 3 hrs by MTT assay (reference value: 22%); type: functional
[11] = Antioxidant activity assessed as trolox equivalent of ABTS radical scavenging activity at 100 uM measured at >= 5 mins in presence of silybin; type: functional
HepG2 [12] = test: Cytoprotective activity against tert-butyl hydroperoxide-induced decrease in cell viability in human HepG2 cells at 5 uM pretreated for 1 hr followed by co-treatment with tert-butyl hydroperoxide for 3 hrs in presence of silybin by MTT assay; type: functional, cell-based
Liver [13] = test: Antioxidant activity against tert-butyl hydroperoxide-induced lipoperoxidation in rat liver microsomal membranes preincubated for 10 mins followed by tert-butyl hydroperoxide addition measured after 60 mins in presence of silybin by TBARS assay; type: functional, cell membranes, Microsomal Membrane
[14] = Antioxidant activity assessed as trolox equivalent of ABTS radical scavenging activity at 100 uM measured at >= 5 mins; type: functional
[15] = Aqueous solubility of the compound in buffer solution; type: physicochemical
[16] = Electro-oxidation activity at glassy carbon electrode in pH 5 acetate buffer at 50 uM by square-wave voltammetry
[17] = Electro-oxidation activity at glassy carbon electrode in pH 2 to 12 at 50 uM by square-wave voltammetry
[18] = Antioxidant activity assessed as trolox equivalent of ABTS radical scavenging activity at 100 uM measured at >= 5 mins in presence of L-ascorbic acid; type: functional
[19] = Antioxidant activity assessed as DPPH radical scavenging activity after 30 mins in presence of L-ascorbic acid by spectrophotometric method; type: functional
HepG2 [20] = test: Cytoprotective activity against tert-butyl hydroperoxide-induced decrease in cell viability in human HepG2 cells at 5 uM pretreated for 1 hr followed by co-treatment with tert-butyl hydroperoxide for 3 hrs in presence of L-ascorbic acid by MTT assay; type: functional, cell-based
Liver [21] = test: Antioxidant activity against tert-butyl hydroperoxide-induced lipoperoxidation in rat liver microsomal membranes preincubated for 10 mins followed by tert-butyl hydroperoxide addition measured after 60 mins in presence of L-ascorbic acid by TBARS assay; type: functional, cell membranes, Microsomal Membrane
[22] = Antiradical activity assessed as gallic acid equivalents of Foline-Ciocalteu reagent reducing capacity at 1 mM preincubated for 5 mins followed by Na2CO3 addition measured after 90 mins in presence of L-ascorbic acid

SMILES	pIC50 [2]	pIC50 (Liver [9])	Activity (HepG2 [3])	Activity [5] [equiv]	Activity [14] [equiv]	Activity [16]	also measured
C=COC(=O)CCCCCCCCCCC(=O)OC[C@H]1Oc2ccc([C@H]3Oc4cc(O)cc(O)c4C(=O)[C@@H]3O)cc2O[C@@H]1c1ccc(O)c(OC)c1	3.43	3.96	–	0.15	0.93	inactive	solubility [15]: Insoluble
C=COC(=O)CCCCCCCCCCC(=O)OC=C	–	–	–	–	–	inactive	–
COc1cc([C@H]2Oc3cc([C@H]4Oc5cc(O)cc(O)c5C(=O)[C@@H]4O)ccc3O[C@@H]2COC(=O)CCCCCCCCCCC(=O)OCCc2ccc(O)cc2)ccc1O	3.60	< 3.00	–	0.17	0.33	inactive	inhibition (Liver [8]): 17%

Continued, in another order:

pIC50 [2]	pIC50 (Liver [9])	SMILES	Activity (HepG2 [3])	Activity [5] [equiv]	Activity [14] [equiv]	Activity [16]	also measured
5.56	< 3.00	O=C1O[C@H]([C@@H](O)CO)C(O)=C1O [ASCORBIC ACID]	Non-Toxic	0.51	0.57	–	inhibition (Liver [1]): 139%; Activity (HepG2 [4]): inactive; pIC50 [6]: 5.53; Activity [7]: 0.25 equiv; inhibition (Liver [8]): 13%; Activity (HepG2 [10]): inactive; Activity [11]: 0.42 equiv; Activity (HepG2 [12]): inactive; pIC50 (Liver [13]): 4.25
4.69	4.52	COc1cc([C@H]2Oc3cc([C@H]4Oc5cc(O)cc(O)c5C(=O)[C@@H]4O)ccc3O[C@@H]2COC(=O)CCCCCCCCCCC(=O)OC[C@H](O)[C@H]2OC(=O)C(O)=C2O)ccc1O	Non-Toxic	0.65	1.32	Active	viability at 5 µM (HepG2 [4]; read-out: Activity): 27%; Activity [17]: Active; viability at 5 µM (HepG2 [10]; read-out: Activity): 43%
5.45	–	Cc1c(C)c2c(c(C)c1O)CCC(C)(CO)O2 (stereo not given)	–	–	–	–	–
3.61	4.11	COc1cc(C2Oc3cc([C@H]4Oc5cc(O)cc(O)c5C(=O)[C@@H]4O)ccc3OC2CO)ccc1O (stereo not given in full) [SILIBININ]	Non-Toxic	0.92	0.78	inactive	Activity (HepG2 [4]): inactive; Activity [18]: 0.42 equiv; pIC50 [19]: 5.53; Activity (HepG2 [20]): inactive; Activity (HepG2 [10]): inactive; pIC50 (Liver [21]): 4.25; Activity [22]: 0.25 equiv
5.46	4.14	COc1cc([C@H]2Oc3cc([C@H]4Oc5cc(O)cc(O)c5C(=O)[C@@H]4O)ccc3O[C@@H]2COC(=O)CCCCCCCCCCC(=O)OCC2(C)CCc3c(C)c(O)c(C)c(C)c3O2)ccc1O (stereo not given in full)	–	0.15	0.24	inactive	–

From ChEMBL document CHEMBL3994614, “Novel flavonolignan hybrid antioxidants: From enzymatic preparation to molecular rationalization” (Eur J Med Chem, 2017)
